Laboratory results: ChEMBL document CHEMBL5046269, “Multifunctional P450 Monooxygenase CftA Diversifies the Clifednamide Pool through Tandem C-H Bond Activations” (2022)

Legend:
Type in all cases: functional
[1] = system: Staphylococcus aureus; assay: Antibacterial activity against Staphylococcus aureus ATCC 11632 assessed as inhibition of bacterial growth measured after 18 hrs by CLSI protocol based microbroth dilution method
[2] = system: Micrococcus luteus; assay: Antibacterial activity against Micrococcus luteus ATCC 10240 assessed as inhibition of bacterial growth measured after 18 hrs by CLSI protocol based microbroth dilution method
[3] = system: Candida albicans; assay: Antifungal activity against Candida albicans ATCC 48130 assessed as inhibition of fungal growth measured after 18 hrs by CLSI protocol based microbroth dilution method
[4] = system: Bacillus subtilis; assay: Antibacterial activity against Bacillus subtilis ATCC 6633 assessed as inhibition of bacterial growth measured after 18 hrs by CLSI protocol based microbroth dilution method

Measured: MIC90

CC[C@H]1[C@@H]2C=C[C@@H]3[C@H]4C/C=C\C(=O)NCCC[C@@H]5NC(=O)C(=C5O)C(=O)/C=C/[C@@H]4C[C@@H]3[C@H]2C[C@H]1C
22.4 µM: all assays above
